Experimental findings from patent US4223038A, “Bicyclic β-lactam antibiotics” (Beecham Group Limited, priority 1977, dated 1980) are described below.

Where two headings read alike, the source gives them in different places.

The target in data set [1] is T1, β-lactamase, Ent. Cloacae P99 (Enterobacter cloacae, UniProt P05364).
T1 construct: preparation not described
Put plainly: β-Lactamase inhibition, automated chromagenic substrate assay. The following applies: for inhibition at 50 µg/mL: at 50 μg/ml (asterisked), read-out: amount of inhibition at maximum concentration; for IC50: read-out: concentration of compound for 50% inhibition of enzyme (converted). Type of data set: biochemical. The method, then: (§1) Method was automated hydroxyamine assay except for compounds marked + which were tested using the automated chromagenic substrate assay.
(§2) Results are presented as concentration of compounds in μg/ml for 50% inhibition of enzyme, except a percentage indicates amount of inhibition at maximum concentration of 20 μg/ml (50 μg/ml for asterisked figures).

Data set [2] addresses T2, β-lactamase, Staph aureus Russel (Staphylococcus aureus, UniProt P00807). Described as above. The format is biochemical. The following applies: at 50 μg/ml (asterisked), read-out: amount of inhibition at maximum concentration. The method, then: as §1, §2
Data set [3] deals with T3, β-lactamase, E. Coli JT4 (Escherichia coli, UniProt P62593).
T3 construct: preparation not described
T3 sequence (P62593 24-286 limits assumed): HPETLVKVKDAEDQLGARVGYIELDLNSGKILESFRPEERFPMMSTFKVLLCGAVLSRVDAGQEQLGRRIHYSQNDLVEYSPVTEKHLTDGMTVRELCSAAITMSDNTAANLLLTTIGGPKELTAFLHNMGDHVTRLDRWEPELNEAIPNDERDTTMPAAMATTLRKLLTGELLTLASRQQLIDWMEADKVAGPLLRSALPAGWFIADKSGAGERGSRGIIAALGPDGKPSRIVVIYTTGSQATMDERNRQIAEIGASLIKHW
The description is as above. The format is biochemical. The following applies: read-out: concentration of compound for 50% inhibition of enzyme (converted). The method, then:
as §1, §2

Data set [4] addresses T1, β-lactamase, Ent. Cloacae P99. Description: β-Lactamase inhibition, automated hydroxyamine assay. Type of data set: biochemical. The following applies: for IC50: maximum concentration 20 μg/ml, read-out: concentration of compound for 50% inhibition of enzyme (converted); for inhibition at 20 µg/mL: at 20 μg/ml, read-out: amount of inhibition at maximum concentration. The method, then: as §1, §2

The target in data set [5] is β-lactamase, Ps aerug A. Described as above. Type of data set: biochemical. Particulars: for amount of inhibition at maximum concentration: at 20 μg/ml. As for the experimental part: as §1, §2
In data set [6] the target is T3, β-lactamase, E. Coli JT4. The description is as above. Type of data set: biochemical. The following applies: for inhibition at 20 µg/mL: read-out: amount of inhibition at maximum concentration; for IC50: maximum concentration 20 μg/ml, read-out: concentration of compound for 50% inhibition of enzyme (converted). As for the experimental part:
as §1, §2

In data set [7] the target is β-lactamase, Kleb aerog E70. Put plainly: β-Lactamase inhibition, automated chromagenic substrate assay. Type of data set: biochemical. As for the experimental part: as §1, §2
In data set [8] the target is β-lactamase, P. Mirab C889. Description: β-Lactamase inhibition, automated hydroxyamine assay. Particulars: for concentration of compound for 50% inhibition of enzyme: maximum concentration 20 μg/ml. Type of data set: biochemical. As for the experimental part:
as §1, §2

Data set [9] deals with β-lactamase, Ps aerug A. Description: β-Lactamase inhibition, automated chromagenic substrate assay. The following applies: at 50 μg/ml (asterisked). The format is biochemical. The method, then:
as §1, §2

In data set [10] the target is β-lactamase, P. Mirab C889. The data set is described as above. The format is biochemical. The method, then:
as §1, §2

Data set [11] concerns the target T2, β-lactamase, Staph aureus Russel. Description: β-Lactamase inhibition, automated hydroxyamine assay. Type of data set: biochemical. The following applies: at 20 μg/ml, read-out: amount of inhibition at maximum concentration. The method, then: as §1, §2
In the next data set the test system is Escherichia coli 8. Put plainly: Antibacterial activity in vivo, mouse intraperitoneal infection. The following applies: Expt R21 and R23. As for the experimental part:
(§3) Antibacterial activity in vivo [drawing 117] Experimental model: Mouse intraperitoneal infection Micro-organism: Escherichia coli 8 suspended in 3% AL1 mucin plus 1% carboxymethylcellulose
(§4) Dosing route: Subcutaneous
(§5) Dosing schedule: 1, 1.5, 2, 2.5 hours after infection

Data set [12] can be described thus: Tolerance of maximum total dose in the mouse infection experiment. Type of data set: in vivo. The following applies: mice; subcutaneous; maximum total dose 100 mg/kg. The method, then:
as §3, §4, §5
Maximum total dose was 100 mg/kg and this was tolerated by the mice.

The mark [13] stands for this setting: E. Coli JT4 β-lactamase, hydroxyamine assay, at 20 μg/ml.
The mark [14] stands for this setting: E. Coli JT4 β-lactamase, hydroxyamine assay.

T2 sequence (P00807 25-281): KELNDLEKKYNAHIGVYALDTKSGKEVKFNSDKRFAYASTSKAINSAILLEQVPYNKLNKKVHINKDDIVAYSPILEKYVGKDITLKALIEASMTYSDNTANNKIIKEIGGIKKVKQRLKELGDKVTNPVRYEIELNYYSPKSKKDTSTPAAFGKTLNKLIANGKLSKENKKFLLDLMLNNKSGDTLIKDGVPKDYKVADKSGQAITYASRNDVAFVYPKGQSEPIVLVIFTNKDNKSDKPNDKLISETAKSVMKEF
T1 sequence (P05364 21-381): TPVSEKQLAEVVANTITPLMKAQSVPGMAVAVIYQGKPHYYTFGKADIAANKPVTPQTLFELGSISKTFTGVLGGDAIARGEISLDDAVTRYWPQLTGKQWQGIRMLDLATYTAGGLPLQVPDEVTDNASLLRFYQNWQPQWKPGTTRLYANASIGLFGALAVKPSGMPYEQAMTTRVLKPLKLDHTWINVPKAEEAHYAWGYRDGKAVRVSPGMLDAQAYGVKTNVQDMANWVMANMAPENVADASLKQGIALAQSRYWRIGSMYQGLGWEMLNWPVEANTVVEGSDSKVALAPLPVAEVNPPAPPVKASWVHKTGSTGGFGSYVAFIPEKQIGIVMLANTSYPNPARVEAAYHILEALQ

As for `CC(=O)Nc1ccc([S+]([O-])C2=C(C(=O)OCc3ccccc3)N3C(=O)CC3C2)cc1` (centres unmarked) [Compound 65, Benzyl 3-p-acetamidophenylsulphinyl-7-oxo-1-azabicyclo[3.2.0]hept-2-ene-2-carboxylate], the inhibition at 50 µg/mL turned out to be 47% in data set [1] and 35% in data set [2]. Besides, the IC50 on β-lactamase, E. Coli JT4 [3] was 0.825 µM.

`CC[S+]([O-])C1=C(C(=O)OCc2ccccc2)N2C(=O)[C@@H](C(C)(C)O)[C@H]2C1` (relative stereo) [Compound 84, Benzyl 3-ethylsulphinyl-trans-6-(2-hydroxy-2-propyl)-7-oxo-1-azabicyclo[3.2.0]hept-2-ene-2-carboxylate]: in data set [4], the IC50 was 10.3 µM. Further, at β-lactamase, Ps aerug A [5] (maximum concentration 20 μg/ml), the “concentration of compound for 50% inhibition of enzyme” value stood at 12.1 µg/mL. In addition, the inhibition at 20 µg/mL at β-lactamase, E. Coli JT4 [6] (setting [13]) is 16%.

As for `CC[S+]([O-])C1=C(C(=O)OCc2ccccc2)N2C(=O)C(Cc3ccccc3)C2C1` (centres unmarked) [Compound 80, Benzyl 6-benzyl-3-ethylsulphinyl-7-oxo-1-azabicyclo[3.2.0]hept-2-ene-2-carboxylate], the IC50 in data set [1] is 52 µM; on β-lactamase, E. Coli JT4 [3], 20.8 µM. Further, the “concentration of compound for 50% inhibition of enzyme” value in [7] worked out at 24 µg/mL.

Take `COC(=O)C=CCC1C(=O)N2C1CC(Cl)([S+]([O-])c1ccccc1)C2C(=O)OCc1ccccc1` (stereo not drawn) [Compound 68, Benzyl 3-chloro-6-(3-methoxycarbonylprop-2-ene-1-yl)-7-oxo-3-phenylsulphinyl-1-azabicyclo[3.2.0]heptane-2α-carboxylate]: in data set [4], the inhibition at 20 µg/mL was 25%. The “concentration of compound for 50% inhibition of enzyme” value in [8] was 0.6 µg/mL. Further, the IC50 on β-lactamase, E. Coli JT4 [6] (setting [14]) was 15.9 µM.

As to `CC(=O)Nc1ccc([S+]([O-])C2=C(C(=O)OCc3ccccc3)N3C(=O)CC3C2)cc1` (centres unmarked) [Compound 67, Benzyl 3-p-acetamidophenylsulphinyl-7-oxo-1-azabicyclo[3,2,0]hept-2-ene-2-carboxylate], the IC50 in data set [1] is 118 µM; at β-lactamase, E. Coli JT4 [3], 1.84 µM.

On to `COC(=O)C=CCC1C(=O)N2C(C(=O)OCc3ccccc3)=C([S+]([O-])c3ccccc3)CC12` (centres unmarked) [Compound 69, Benzyl 6-(3-methoxycarbonylprop-2-en-1-yl)-7-oxo-3-phenylsulphnyl-1-azabicyclo[3.2.0]hept-2-ene-2-carboxylate], for which the inhibition at 20 µg/mL in data set [4] turned out to be 23%. Moreover, the “amount of inhibition at maximum concentration” value (shortened to “amount of inhibition”) with β-lactamase, Ps aerug A [5] amounted to 44%. For the same compound, the “concentration of compound for 50% inhibition of enzyme” value in [8] was 2.4 µg/mL. Further, on β-lactamase, E. Coli JT4 [6] (setting [14]), the IC50 is 26.2 µM.

For the compound `CC[S+]([O-])C1=C(C(=O)OC2OC(=O)c3ccccc32)N2C(=O)C(CC=CC(=O)OC)C2C1` (centres unmarked) [Compound 78, Phthalidyl 3-ethylsulphinyl-6-(3-methoxycarbonylprop-2-en-1-yl)-7-oxo-1-azabicyclo[3.2.0]hept-2-ene-2-carboxylate], the IC50 in [4] was 19.2 µM. Besides, on β-lactamase, E. Coli JT4 [6] (setting [13]), the inhibition at 20 µg/mL is 16%.

`CC(O)[C@@H]1C(=O)N2C(C(=O)OCc3ccccc3)=C([S+]([O-])c3ccccc3)C[C@H]12` (relative stereo) [Compound 82, Benzyl trans-6-(1-hydroxyethyl)-7-oxo-3-phenylsulphinyl-1-azabicyclo[3.2.0]hept-2-ene-2-carboxylate]: the IC50 in data set [1] was 46.2 µM; at β-lactamase, E. Coli JT4 [3] it was 31.6 µM. For the same compound, the inhibition at 50 µg/mL in data set [2] turned out to be 20%. Also, the “concentration of compound for 50% inhibition of enzyme” value in [7] was 2 µg/mL.

On to `CC[S+]([O-])C1=C(C(=O)OCc2ccccc2)N2C(=O)CC2C1` (centres unmarked) [Compound 57, Benzyl 3-ethylsulphinyl-7-oxo-1-azabicyclo[3.2.0]hept-2-ene-2-carboxylate], for which, in data set [1], the inhibition at 50 µg/mL came to 19%. In addition, the “amount of inhibition” value in the data set with β-lactamase, Ps aerug A [9] was determined as 47%; in data set [7] (at 50 μg/ml (asterisked)), 17%. The “concentration of compound for 50% inhibition of enzyme” value in [10] is 3.5 µg/mL. Further, on β-lactamase, E. Coli JT4 [3], the IC50 is 28.2 µM.

On to `CC[S+]([O-])C1=C(C(=O)OCC(=O)c2ccc(Br)cc2)N2C(=O)C(CC=CC(=O)OC)C2C1` (single isomer, unassigned) [Compound 73, p-Bromophenacyl 3-ethylsulphinyl-6-(3-methoxycarbonylprop-2-en-1-yl)-7-oxo-1-azabicyclo[3.2.0]hept-2-ene-2-carboxylate], for which, in [4], the inhibition at 20 µg/mL amounted to 31%. In addition, the “concentration of compound for 50% inhibition of enzyme” value in [8] amounted to 1.2 µg/mL.

Turning to `CC[S+]([O-])C1=C(C(=O)OCc2ccccc2)N2C(=O)[C@@H](C(C)(C)O)[C@H]2C1` (relative stereo) [Compound 86, Benzyl 3-ethylsulphinyl-trans-6-(2-hydroxy-2-propyl)-7-oxo-1-aza-bicyclo[3.2.0]hept-2-ene-2-carboxylate], the IC50 in [4] is 6.62 µM.

`COC(=O)C=CCC1C(=O)N2C(C(=O)OCc3ccccc3)=C([S+]([O-])c3ccccc3)CC12` (centres unmarked) [Compound 71, Benzyl 6-(3-methoxycarbonylprop-2-en-1-yl)-7-oxo-3-phenylsulphinyl-1-azabicyclo[3.2.0]hept-2-ene-2-carboxylate]: the “concentration of compound for 50% inhibition of enzyme” value in [8] was found to be 2.0 µg/mL. In addition, the IC50 at β-lactamase, E. Coli JT4 [6] (setting [14]) is 18.3 µM.

With `CC(=O)NCC[S+]([O-])C1=C(C(=O)OCc2ccccc2)N2C(=O)CC2C1` (centres unmarked) [Compound 63, Benzyl 3-(2-acetamidoethylsulphinyl)-7-oxo-1-azabicyclo[3.2.0]hept-2-ene-2-carboxylate], the inhibition at 20 µg/mL came out at 16% in data set [4] and 29% at β-lactamase, E. Coli JT4 [6] (setting [13]). The “concentration of compound for 50% inhibition of enzyme” value in data set [8] is 3.3 µg/mL.

Turning to `CC[S+]([O-])C1=C(C(=O)OCc2ccccc2)N2C(=O)[C@H](C(C)(C)O)[C@H]2C1` (relative stereo) [Compound 88, Benzyl 3-ethylsulphinyl-cis-6-(2-hydroxy-2-propyl)-7-oxo-1-azabicyclo[3.2.0]hept-2-ene-2-carboxylate], the IC50 in data set [4] is 21.7 µM; on β-lactamase, E. Coli JT4 [6] (setting [14]), 21.2 µM. Also, the inhibition at 20 µg/mL in data set [11] is 19%. For the same compound, the “amount of inhibition” value in the data set on β-lactamase, Ps aerug A [5] is given as 23%; in data set [8] (at 20 μg/ml) it was 13%.

In the case of `CC[S+]([O-])C1=C(C(=O)OCc2ccccc2)N2C(=O)CC2C1` (centres unmarked) [Compound 55, Benzyl 3-ethylsulphinyl-7-oxo-1-azabicyclo[3.2.0]hept-2-ene-2-carboxylate], the ED50 with Escherichia coli 8 (Escherichia coli, 8, sc, 2.5 h, mouse i.p. infection with Escherichia coli 8, subcutaneous dosing 1, 1.5, 2, 2.5 hours after infection, total dose, read-out: CD50 Value mg/kg (total dose)) came out at 5.2 mg/kg. The “CD50 Value mg/kg (total dose)” value in the data set on Escherichia coli 8 (mouse i.p. infection with Escherichia coli 8, subcutaneous dosing 1, 1.5, 2, 2.5 hours after infection) came out at 8.8 mg/kg. Besides, the “tolerance of maximum total dose” value in [12] is listed as “tolerated”. In addition, in data set [8], the “concentration of compound for 50% inhibition of enzyme” value was found to be 4 µg/mL. The inhibition at 20 µg/mL on β-lactamase, E. Coli JT4 [6] came out at 28%.
